The source made the active and inactive calls. No cut-off for these calls is given here.
Experiments:
L1210 [1] = test: Apparent inhibition of incorporation of labeled thymidine into DNA in murine leukemia L1210 cell;No inhibition; assay type: functional, cell-based; conditions: Mus musculus
L1210 [2] = test: Percent inhibition of growth of murine leukemia L1210 cell culture at 1 mM was determined.; assay type: functional; conditions: Mus musculus
Human alphaherpesvirus 2 = test: Antiviral activity against herpes simplex virus 2 (HSV 2); Inactive; assay type: functional, organism-based
Human alphaherpesvirus 1 = test: Antiviral activity against herpes simplex virus-1 (HSV 1); Inactive; assay type: functional, organism-based
[3] = tested on: Vesicular stomatitis virus; test: Antiviral activity against vesicular stomatis virus (VSV); Inactive; assay type: functional, organism-based

## Nc1ccn([C@@H]2O[C@H](CO)[C@@H](O)[C@@H]2O)c(=O)n1
L1210 [1]
  Activity: inactive

## Nc1ncnc2c1ncn2[C@@H]1C=C(CO)[C@@H](O)[C@H]1O [NEOPLANOCIN A]
L1210 [2]
  inhibition at 1000 µM: 50%
Human alphaherpesvirus 2
  Activity: inactive
Human alphaherpesvirus 1
  Activity: inactive
[3]
  Activity: inactive

## Nc1nc(O)c2ncn([C@@H]3C=C(CO)[C@@H](O)[C@H]3O)c2n1
L1210 [2]
  inhibition at 1000 µM: 50%
Human alphaherpesvirus 2
  Activity: inactive
Human alphaherpesvirus 1
  Activity: inactive
[3]
  Activity: inactive
